According to ChEMBL document CHEMBL1149026, “Ohioensins and pallidisetins: novel cytotoxic agents from the moss Polytrichum pallidisetum” (1994):
≈ marks a conversion by molar mass, not a printed value.

Key:
Type in all cases: functional
Details in all cases: read-out: ED50 (the source's name)
[1] = system: A549; test: Cytotoxicity against human A549 cells
[2] = system: RPMI-7951; test: Cytotoxicity against human RPMI7951 cells
[3] = system: U-251; test: Cytotoxicity against human U251 cells
[4] = system: HT-29; test: Cytotoxicity against human HT-29 cells

| SMILES | EC50 [1] [µg/mL] | EC50 [2] [µg/mL] | EC50 [3] [µg/mL] | EC50 [4] [µg/mL] |
| --- | --- | --- | --- | --- |
| COc1cc(OC)c2c3c1-c1c(O)cccc1[C@@H]1Oc4ccccc4[C@@H](C[C@@H]2OC)[C@@H]31 [1,14-DI-O-METHYLDIHYDROOHIOENSIN B] | 1 (≈ 2.4 µM) | 1 (≈ 2.4 µM) | – | – |
| COc1cc(OC)c2c3c1-c1c(O)cccc1[C@@H]1Oc4ccccc4[C@@H](C[C@@H]2O)[C@@H]31 [1-O-METHYLDIHYDROOHIOENSIN B] | – | – | 0.8 (≈ 1.99 µM) | – |
| COc1cc(OC)c2c3c1C(=O)C[C@@H]1c4ccccc4O[C@@H](c4cccc(O)c4-2)[C@H]31 [1-O-METHYLOHIOENSIN B] | – | 1 (≈ 2.5 µM) | 2 (≈ 4.99 µM) | 1 (≈ 2.5 µM) |
| O=C(/C=C/c1ccccc1)c1cc(O)cc2c1CC(c1ccccc1)O2 (stereo not given) [PALLIDISETIN A] | – | 1 (≈ 2.92 µM) | 1 (≈ 2.92 µM) | – |
| O=C(/C=C\c1ccccc1)c1cc(O)cc2c1CC(c1ccccc1)O2 (stereo not given) [PALLIDISETIN B] | – | 2 (≈ 5.84 µM) | 2 (≈ 5.84 µM) | – |
